Results reported in patent US20230212549A1, “COMPOUNDS COMPRISING A […] LIGAND AND USE THEREOF” (priority 2021, published 2023).
pIC50, pKd: −log10 of the molar value. Numbered stars: 1 amine (or outer) side, 2 acyl side, 3 side chain; on linkers, the order of the positions; unused ones are H or OH. Bridge positions count the residues as written; N and C are the ends. Square brackets hold non-standard residues; d marks the D form. Peptide text beside a SMILES is read from it. * marks the point of attachment. X6 = NCCNCC(CNCCN)C(=O)NCCOCCOCCOCCOCCOCCOCCC(=O)NCCCOCCOCCOCCCN*; X1 = NCCNCC(CNCCN)C(=O)N1CCN(CC(=O)NCCCOCCOCCOCCCN*)CC1; mXylylene = c1cc(C[*:1])cc(C[*:2])c1; Suc = O=C(CCC(=O)[*:2])[*:1]; Nle = CCCC[C@H](N)C(=O)O

What was measured:
[1] = molecular target: T1, FAP-expressing human WI-38 fibroblasts (Homo sapiens, UniProt Q12884); assay: Competitive FACS binding assay
T1 construct: FAP-expressing human WI-38 fibroblasts (ECACC) were cultured in EMEM; host or cells: WI-38 human fibroblasts
Method: Cells were analyzed in an Attune NxT flow cytometer. […] […].
Cells were analyzed in an Attune NxT flow cytometer. […]

Human recombinant FAP [2] = molecular target: T2, Human recombinant FAP (Homo sapiens, UniProt Q12884); assay: Surface plasmon resonance (Biacore) assay; assay type: binding
[3] = Radiochemical purity by HPLC of ^99mTc-labeled compounds; assay type: physicochemical; settings: 99Tc-labeled compounds
Method: 100-500 MBq of ^99mTcO4 (in saline) were mixed with 11 μl of 0.5 M phosphate buffer pH 11.5-12.0 and 1.1 μl of 0.1 M trisodium citrate per 100 μl radionuclide solution. […] The mixture was incubated for 30 min at 25-50′° C. At the end of the incubation time, the mixture was neutralized with 3.0 μl 1 M HCl per 10 μl phosphate buffer and TWEEN-20 was added at a final concentration of 0.100.

in vivo [4] = settings: swiss nude, mouse, iv
Human recombinant FAP [5] = molecular target: T2, Human recombinant FAP; assay: FRET-based FAP protease activity assay; assay type: biochemical; set-up: purchased R&D systems 3715-SE
in vivo [6] = settings: female, athymic nude, mouse, iv, ^68Ga-labeled, PET/CT; for tissue uptake at 0.25 h: 0.25 h post tracer injection; for tissue uptake at 1 h: 1 h post tracer injection; for tissue uptake at 3 h: 3 h post tracer injection
[7] = pIC50 Category (activity), Recombinant human FAP
[8] = pIC50 Category (Activity), FRET-peptide substrate, 37° C.

T1 sequence (Q12884 whole entry): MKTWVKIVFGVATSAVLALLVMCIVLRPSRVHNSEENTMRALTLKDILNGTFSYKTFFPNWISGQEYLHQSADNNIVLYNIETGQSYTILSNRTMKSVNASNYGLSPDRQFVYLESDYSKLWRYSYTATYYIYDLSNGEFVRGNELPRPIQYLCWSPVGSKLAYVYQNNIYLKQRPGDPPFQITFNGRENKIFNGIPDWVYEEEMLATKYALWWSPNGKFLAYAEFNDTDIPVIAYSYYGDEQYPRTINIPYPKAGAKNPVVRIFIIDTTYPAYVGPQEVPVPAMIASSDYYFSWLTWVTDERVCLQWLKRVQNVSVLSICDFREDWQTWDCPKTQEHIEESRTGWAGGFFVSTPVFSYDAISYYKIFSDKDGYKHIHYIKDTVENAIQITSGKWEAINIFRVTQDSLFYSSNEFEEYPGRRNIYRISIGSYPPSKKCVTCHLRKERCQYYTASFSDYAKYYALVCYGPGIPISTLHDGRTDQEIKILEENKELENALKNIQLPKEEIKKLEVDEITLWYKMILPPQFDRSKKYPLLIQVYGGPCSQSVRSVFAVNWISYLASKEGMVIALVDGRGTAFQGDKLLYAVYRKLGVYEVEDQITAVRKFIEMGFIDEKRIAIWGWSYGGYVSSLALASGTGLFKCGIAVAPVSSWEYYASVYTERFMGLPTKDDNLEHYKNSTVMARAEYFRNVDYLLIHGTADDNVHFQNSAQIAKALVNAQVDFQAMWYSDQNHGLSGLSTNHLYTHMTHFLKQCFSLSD
T2 sequence (Q12884 whole entry): as above

Compound | pIC50 [1] | HPLC Area % at end of synthesis [3] [%] | HPLC Area % appr. 4 h post end of synthesis ([3]; (3 h)) [%] | tissue uptake at 1 h (in vivo [4]; blood pool surrogate (BPS)) [%ID/g] | tissue uptake at 3 h (in vivo [4]; blood pool surrogate (BPS)) [%ID/g] | tissue uptake at 6 h (in vivo [4]; blood pool surrogate (BPS)) [%ID/g] | tissue uptake at 1 h (in vivo [4]; kidneys) [%ID/g] | tissue uptake at 3 h (in vivo [4]; kidneys) [%ID/g] | tissue uptake at 6 h (in vivo [4]; kidneys) [%ID/g] | tissue uptake at 1 h (in vivo [4]; tumor) [%ID/g] | tissue uptake at 3 h (in vivo [4]; tumor) [%ID/g] | tissue uptake at 6 h (in vivo [4]; tumor) [%ID/g] | pIC50 (Human recombinant FAP [5]; [7]) | HPLC Area % appr. 4 h post end of synthesis [3] [%] | also measured
CCCC[C@H](NC(=O)CCC(=O)NCCCOCCOCCOCCCNC(=O)C(CNCCN)CNCCN)C(=O)N[C@H]1CSCc2cncc(c2)CSCC(C(=O)O)NC(=O)[C@H](Cc2ccccc2)NC(=O)[C@H](CCC(N)=O)NC(=O)[C@H]([C@@H](C)O)NC(=O)[C@@H]2CCCN2C(=O)[C@@H]2CCCN2C1=O (stereo partly drawn) [3BP-4549, N4Ac-Ttds-Nle-[Cys(3Lut)-Pro-Pro-Thr-Gln-Phe-Cys]-OH] | 7.10 to 8.00 | 99.3 | 97.6 | 0.18 | 0.03 | 0.01 | 4.22 | 1.82 | 0.58 | 6.04 | 4.25 | 1.68 | > 8.00 |  | pKd (Human recombinant FAP [2]): 7.10 to 8.00
CCCC[C@H](NC(=O)CCC(=O)NCCCOCCOCCOCCCNC(=O)CCOCCOCCOCCOCCOCCOCCNC(=O)C(CNCCN)CNCCN)C(=O)N[C@H]1CSCc2cccc(c2)CSC[C@@H](C(=O)O)NC(=O)[C@H](Cc2ccccc2)NC(=O)[C@H](CCC(=O)O)NC(=O)[C@H]([C@@H](C)O)NC(=O)[C@@H]2CCCN2C(=O)[C@@H]2CCCN2C1=O [3BP-4780, N4Ac-PEG6-Ttds-Nle-[Cys(3MeBn)-Pro-Pro-Thr-Glu-Phe-Cys]-OH] ({X6-Suc}-[Nle]CPPTEFC-OH; linker 2-8 via mXylylene) | 7.10 to 8.00 | 95.0 |  | 0.81 | 0.61 | 0.43 | 8.11 | 6.14 | 4.36 | 6.71 | 7.01 | 7.92 | > 8.00 | 92.3 | 
CCCCNC(=O)N[C@H]1CSCc2cc(cc(CN3CCN(C(=O)C(CNCCN)CNCCN)CC3)c2)CSC[C@@H](C(=O)O)NC(=O)[C@H](Cc2ccccc2)NC(=O)[C@H](CCC(N)=O)NC(=O)[C@H]([C@@H](C)O)NC(=O)[C@@H]2CCCN2C(=O)[C@@H]2CCCN2C1=O [3BP-4533, nBu-CAyl-[Cys(tMeBn(N4Ac-PP))-Pro-Pro-Thr-Gln-Phe-Cys]-OH] | > 8.00 | 99.3 | 98.2 | 1.72 | 1.46 | 0.86 | 6.04 | 4.43 | 3.04 | 5.45 | 6.27 | 6.75 |  |  | pIC50 (Human recombinant FAP [5]; [8]): > 8.00
CCCC[C@H](NC(=O)CCC(=O)NCCCOCCOCCOCCCNC(=O)CN1CCN(C(=O)C(CNCCN)CNCCN)CC1)C(=O)N[C@H]1CSCc2cncc(c2)CSCC(C(=O)O)NC(=O)[C@H](Cc2ccccc2)NC(=O)[C@H](CCC(N)=O)NC(=O)[C@H]([C@@H](C)O)NC(=O)[C@@H]2CCCN2C(=O)[C@@H]2CCCN2C1=O (stereo partly drawn) [3BP-4774, N4Ac-PPAc-Ttds-Nle-[Cys(3Lut)-Pro-Pro-Thr-Gln-Phe-Cys]-OH] | 7.10 to 8.00 | 88.8 |  | 0.08 | 0.06 | 0.03 | 1.87 | 0.85 | 0.48 | 6.14 | 3.7 | 1.74 | 7.10 to 8.00 | 86.1 | 
CCCC[C@H](NC(=O)CCC(=O)NCCCOCCOCCOCCCNC(=O)CCOCCOCCOCCOCCOCCOCCNC(=O)C(CNCCN)CNCCN)C(=O)N[C@H]1CSCc2cccc(c2)CSCC(C(=O)O)NC(=O)[C@H](Cc2ccccc2)NC(=O)[C@H](CCC(N)=O)NC(=O)[C@H]([C@@H](C)O)NC(=O)[C@@H]2CCCN2C(=O)[C@@H]2CCCN2C1=O (stereo partly drawn) [3BP-4552, N4Ac-PEG6-Ttds-Nle-[Cys(3MeBn)-Pro-Pro-Thr-Gln-Phe-Cys]-OH] | 7.10 to 8.00 | 88.3 |  | 0.52 | 0.14 | 0.07 | 3.17 | 3.4 | 1.34 | 7.92 | 6.86 | 5.21 | 7.10 to 8.00 |  | 
CCCC[C@H](NC(=O)CCC(=O)NCCCOCCOCCOCCCNC(=O)CN1CCN(C(=O)C(CNCCN)CNCCN)CC1)C(=O)N[C@H]1CSCc2cccc(c2)CSC[C@@H](C(=O)N[C@@H](CC(=O)O)C(=O)O)NC(=O)[C@H](Cc2ccccc2)NC(=O)[C@H](CCC(=O)O)NC(=O)[C@H]([C@@H](C)O)NC(=O)[C@@H]2CCCN2C(=O)[C@@H]2CCCN2C1=O [3BP-4785, N4Ac-PPAc-Ttds-Nle-[Cys(3MeBn)-Pro-Pro-Thr-Glu-Phe-Cys]-Asp-OH] ({X1-Suc}-[Nle]CPPTEFCD-OH; linker 2-8 via mXylylene) | > 8.00 | 95.3 |  | 0.92 | 0.64 | 0.48 | 3.47 | 2.14 | 1.63 | 4.2 | 4.14 | 4.32 | > 8.00 | 93.8 | 
CCCC[C@H](NC(=O)CCC(=O)NCCCOCCOCCOCCCNC(=O)CN1CCN(C(=O)C(CNCCN)CNCCN)CC1)C(=O)N[C@H]1CSCc2cccc(c2)CSC[C@@H](C(=O)O)NC(=O)[C@H](Cc2ccccc2)NC(=O)[C@H](CCC(=O)O)NC(=O)[C@H]([C@@H](C)O)NC(=O)[C@@H]2CCCN2C(=O)[C@@H]2CCCN2C1=O [3BP-4782, N4Ac-PPAc-Ttds-Nle-[Cys(3MeBn)-Pro-Pro-Thr-Glu-Phe-Cys]-OH] ({X1-Suc}-[Nle]CPPTEFC-OH; linker 2-8 via mXylylene) | 7.10 to 8.00 | 97.1 |  | 0.69 | 0.47 | 0.36 | 7.28 | 5.78 | 4.24 | 6.2 | 6.77 | 7.17 | 7.10 to 8.00 | 95.8 | 
CCCCNC(=O)N[C@H]1CSCc2cc(CSCCNC(=O)CCP(=O)(O)CN3CCN(CP(=O)(O)CO)CCN(CP(=O)(O)CO)CC3)cc(c2)CSCC(C(=O)O)NC(=O)[C@H](Cc2ccccc2)NC(=O)[C@H](CCC(N)=O)NC(=O)[C@H]([C@@H](C)O)NC(=O)[C@@H]2CCCN2C(=O)[C@@H]2CCCN2C1=O (stereo partly drawn) [3BP-4768, nBu-CAyl-[Cys(tMeBn(NOPO-AET))-Pro-Pro-Thr-Gln-Phe-Cys]-OH] | > 8.00 |  |  |  |  |  |  |  |  |  |  |  | > 8.00 |  | pKd (Human recombinant FAP [2]): > 8.00; tissue uptake at 0.25 h (in vivo [6]; blood pool surrogate (BPS), uptake BPS 0.25 h, BPS (blood pool surrogate)): 2.54 %ID/g; tissue uptake at 1 h (in vivo [6]; blood pool surrogate (BPS), uptake BPS 1 h, BPS (blood pool surrogate)): 0.78 %ID/g; tissue uptake at 3 h (in vivo [6]; blood pool surrogate (BPS), uptake BPS 3 h, BPS (blood pool surrogate)): 0.27 %ID/g; tissue uptake at 0.25 h (in vivo [6]; kidneys, uptake Kidneys 0.25 h): 18.4 %ID/g; tissue uptake at 1 h (in vivo [6]; kidneys, uptake Kidneys 1 h): 2.45 %ID/g; tissue uptake at 3 h (in vivo [6]; kidneys, uptake Kidneys 3 h): 0.67 %ID/g; tissue uptake at 0.25 h (in vivo [6]; tumor, uptake Tumor 0.25 h, HEK-FAP tumor): 7.82 %ID/g; tissue uptake at 1 h (in vivo [6]; tumor, uptake Tumor 1 h, HEK-FAP tumor): 9.42 %ID/g; tissue uptake at 3 h (in vivo [6]; tumor, uptake Tumor 3 h, HEK-FAP tumor): 9.2 %ID/g
CCCCNC(=O)N[C@H]1CSCc2cc(CSCCNC(=O)C(CNCCN)CNCCN)cc(c2)CSC[C@@H](C(=O)O)NC(=O)[C@H](Cc2ccccc2)NC(=O)[C@H](CCC(N)=O)NC(=O)[C@H]([C@@H](C)O)NC(=O)[C@@H]2CCCN2C(=O)[C@@H]2CCCN2C1=O [3BP-4534, nBu-CAyl-[Cys(tMeBn(N4Ac-AET))-Pro-Pro-Thr-Gln-Phe-Cys]-OH] | > 8.00 | 98.6 | 97.5 | 1.7 | 1.19 | 0.78 | 2.06 | 1.4 | 1.09 | 5.67 | 6.85 | 7.68 |  |  | pIC50 (Human recombinant FAP [5]; [8]): > 8.00
